Laboratory results: patent US4447626A, “ML-236B Derivatives” (Sankyo Company Limited, priority 1981, dated 1984)

System: cholesterol biosynthesis
Assay: Inhibition of cholesterol biosynthesis (method of J. Biol. Chem. 234, 2835 (1959))
Assay type: biochemical
Details: method of Journal of Biological Chemistry, 234, 2835 (1959)
Text: The inhibitory activities of certain of the compounds of the invention, in terms of the concentration in μg/ml required to inhibit cholesterol biosynthesis by 50% [measured by the method described in the Journal of Biological Chemistry, 234, 2835 (1959)], are as follows: […]

SMILES	concentration required to inhibit cholesterol biosynthesis by 50% [µg/mL]
CC[C@H](C)C(=O)O[C@H]1CC=CC2=CC(OC)[C@H](C)[C@H](CC[C@@H](O)C[C@@H](O)CC(=O)O)[C@H]21 (stereo partly drawn) [Sodium 6-methoxy-IsoML-236B carboxylate, sodium 6-methoxy-IsoML-236B carboxylate]	0.0044
CC[C@H](C)C(=O)O[C@H]1CCC=C2C=C[C@H](C)[C@H](CC[C@@H]3C[C@@H](O)CC(=O)O3)[C@H]21 [ML-236B lactone, reference compound]	0.010
CC[C@H](C)C(=O)O[C@H]1CC=CC2=CC(OC)[C@H](C)[C@H](CC[C@@H]3C[C@@H](O)CC(=O)O3)[C@H]21 (stereo partly drawn) [6-methoxy-IsoML-236B lactone]	0.015
